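Five concentrations, 48 hours, 96-well plates. Here, GI50 denotes the concentration required for 50% inhibition of growth. TGI marks complete inhibition of growth.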

Drawing on PubChem BioAssay (NCI), this text covers TGI and GI50 for 24 compounds.

Test systems include SF-295 CNS; MOLT-4 leukemia; OVCAR-3 ovarian; HL-60(TB) leukemia; K-562 leukemia; COLO 205 colon; NCI-H522 lung; CAKI-1 renal; NCI/ADR-RES ovarian; MCF7 breast.
What all share (assay): growth of human tumour cells (NCI), 48 h

Regarding `Cc1ccc(Sc2ccccc2[N+](=O)[O-])cc1`, the TGI is 70.9 µM with SF-295 CNS; 81.4 µM in the experiment on MOLT-4 leukemia; above 100 µM in the experiment on OVCAR-3 ovarian; 58.6 µM in the experiment on HL-60(TB) leukemia; above 100 µM in the experiment with K-562 leukemia; 62.3 µM with COLO 205 colon.
Turning to `Cc1cccc2c1c1ccc3c(c1n2C)C(=O)C=CC3=O`, the TGI in the experiment with SF-295 CNS was 30.9 µM; with MOLT-4 leukemia, 2.99 µM; in the experiment on OVCAR-3 ovarian it was 5.08 µM; in the experiment on HL-60(TB) leukemia it was 2.94 µM; in the experiment on K-562 leukemia it was 6.03 µM; in the experiment with NCI-H522 lung it was 2.97 µM. In addition, the TGI in the experiment with COLO 205 colon was 6.26 µM; in the experiment with CAKI-1 renal, 10.4 µM.
In the case of `O=C1Nc2cc([N+](=O)[O-])c(Br)cc2C1=O`, the TGI with SF-295 CNS was 14.3 µM; in the experiment on MOLT-4 leukemia it was 43 µM; in the experiment with OVCAR-3 ovarian, 32.1 µM; in the experiment on K-562 leukemia it was 55.7 µM; with NCI-H522 lung, 30.3 µM; in the experiment with COLO 205 colon, 35 µM. Also, the TGI in the experiment on CAKI-1 renal was determined as 47.5 µM.
For the compound `COc1cc(C2C(Cl)C(=O)N2NC(=O)c2ccc(NC(C)=O)cc2)ccc1O` (centres undefined), the TGI in the experiment on SF-295 CNS, with MOLT-4 leukemia, in the experiment with OVCAR-3 ovarian, with HL-60(TB) leukemia, with K-562 leukemia and with NCI-H522 lung was above 100 µM each time. Further, the TGI with COLO 205 colon and in the experiment on CAKI-1 renal was above 100 µM throughout.
As for `CC(C)OP(=O)(OC(C)C)C1=NN(c2ccc([N+](=O)[O-])cc2)C(P(=O)(OC(C)C)OC(C)C)=NN1c1ccc([N+](=O)[O-])cc1`, the TGI in the experiment on MOLT-4 leukemia is above 100 µM; with OVCAR-3 ovarian, above 100 µM; in the experiment on HL-60(TB) leukemia it was 16.4 µM; with K-562 leukemia, above 100 µM; in the experiment with NCI-H522 lung it was above 100 µM; with COLO 205 colon it was above 100 µM. Besides, the TGI in the experiment with CAKI-1 renal is above 100 µM.
For `CCOC(=O)c1cc2c(OCc3ccccc3)c(OC)cc3c2c(n1)N(c1ccc(OC)cc1)C(C)C3` (centres undefined), the TGI in the experiment with SF-295 CNS, with MOLT-4 leukemia, in the experiment on OVCAR-3 ovarian, in the experiment with HL-60(TB) leukemia, in the experiment on K-562 leukemia and in the experiment with NCI-H522 lung was above 50 µM each time. Moreover, the TGI in the experiment with COLO 205 colon and in the experiment on CAKI-1 renal was above 50 µM throughout.
For `Cc1cc(NC(=O)C2C3C=CC(O3)C2C(=O)O)no1` (centres undefined), the TGI in the experiment with SF-295 CNS is above 100 µM; in the experiment on MOLT-4 leukemia, above 100 µM; with OVCAR-3 ovarian, above 100 µM; with HL-60(TB) leukemia, 40 µM; in the experiment with K-562 leukemia it was 42.5 µM; with NCI-H522 lung it was above 100 µM. Besides, in the experiment with COLO 205 colon, the TGI was found to be 31.5 µM.
`COC(=O)[C@@](C)(COC(=O)C(C)(C)C)NC(=O)OC(C)(C)C`: the TGI with SF-295 CNS, with MOLT-4 leukemia, in the experiment with K-562 leukemia, with NCI-H522 lung, in the experiment with COLO 205 colon and with NCI/ADR-RES ovarian was above 100 µM throughout. The TGI with MCF7 breast and in the experiment with CAKI-1 renal was above 100 µM throughout.
Take `CC(=O)NC(CCCCN)C(=O)NCc1ccccc1` (centres undefined): the TGI in the experiment with SF-295 CNS, with MOLT-4 leukemia, with OVCAR-3 ovarian, with K-562 leukemia, in the experiment with NCI-H522 lung and in the experiment on COLO 205 colon was above 100 µM in each case. In addition, the TGI in the experiment with CAKI-1 renal was above 100 µM.
Take `CCOC(=O)C(C)Sc1nnc(COc2ccccc2OC)n1-c1ccccc1` (centres undefined): the TGI with SF-295 CNS, with OVCAR-3 ovarian, in the experiment with HL-60(TB) leukemia, in the experiment on K-562 leukemia, in the experiment on NCI-H522 lung and with COLO 205 colon was above 100 µM each time. In the experiment with CAKI-1 renal, this compound returned a TGI above 100 µM.
Take `Cc1cn(C2CC(CCCO)C(CO)O2)c(=O)[nH]c1=O` (centres undefined): the TGI in the experiment with SF-295 CNS, in the experiment on MOLT-4 leukemia, with OVCAR-3 ovarian, in the experiment with HL-60(TB) leukemia, in the experiment on K-562 leukemia and in the experiment with NCI-H522 lung was above 100 µM each time. Further, the TGI in the experiment on COLO 205 colon and with CAKI-1 renal was above 100 µM throughout. Further, the GI50 with MOLT-4 leukemia is above 100 µM.
In the case of `CCN(CC)CCCNC(=O)c1cc2cc(NC(=O)c3cc4cc([N+](=O)[O-])ccc4[nH]3)ccc2[nH]1`, the TGI with SF-295 CNS was above 100 µM; in the experiment on OVCAR-3 ovarian it was 75.8 µM; with K-562 leukemia it was above 100 µM; with COLO 205 colon it was above 100 µM; with NCI/ADR-RES ovarian, above 100 µM; in the experiment on MCF7 breast, above 100 µM. In the experiment on CAKI-1 renal, this compound registered a TGI above 100 µM.
In the case of `[O-][n+]1c(CN2CCCCC2)nc2cccc3c2c1-c1ccccc1-3`, the TGI in the experiment with SF-295 CNS was 84 µM; in the experiment on MOLT-4 leukemia it was above 100 µM; with OVCAR-3 ovarian, 46.5 µM; in the experiment on HL-60(TB) leukemia, above 100 µM; in the experiment with K-562 leukemia, above 100 µM; in the experiment with COLO 205 colon, 64.3 µM. In addition, the TGI in the experiment on NCI/ADR-RES ovarian came out at 84.6 µM; in the experiment with MCF7 breast, 76.5 µM; in the experiment with CAKI-1 renal it was 81.7 µM.
For `CCOC(=O)CCC1(C(=O)OCC)CCCC1=O` (centres undefined), the TGI in the experiment with SF-295 CNS, in the experiment with MOLT-4 leukemia, in the experiment on OVCAR-3 ovarian, in the experiment with HL-60(TB) leukemia, in the experiment on K-562 leukemia and in the experiment with NCI-H522 lung was above 100 µM each time. Further, the TGI with COLO 205 colon and in the experiment with CAKI-1 renal was above 100 µM throughout.
Consider `C=C(C)C1CC/C(C)=C/CC[C@]2(C)O[C@@H]2CCC2=CC1OC2=O` (some centres undefined), for which the GI50 with SF-295 CNS is 24 µM; with MOLT-4 leukemia it was 12.1 µM; in the experiment with K-562 leukemia, 14.6 µM; with NCI-H522 lung it was above 100 µM; in the experiment with COLO 205 colon it was above 100 µM; in the experiment with NCI/ADR-RES ovarian it was above 100 µM. Besides, the GI50 in the experiment on MCF7 breast was above 100 µM; in the experiment on CAKI-1 renal, 19 µM. In addition, the TGI in the experiment on SF-295 CNS is above 100 µM; in the experiment with MOLT-4 leukemia, 30.6 µM; in the experiment on K-562 leukemia, 27.7 µM; with NCI-H522 lung it was above 100 µM; with COLO 205 colon, above 100 µM; in the experiment with NCI/ADR-RES ovarian, above 100 µM. Moreover, the TGI in the experiment on MCF7 breast was above 100 µM; in the experiment with CAKI-1 renal, 49.1 µM.
With `COc1ccc2nc3c(c(NCCCN(C)C)c2c1)CCCC3`, the TGI is 29 µM in the experiment on SF-295 CNS; 14.2 µM with MOLT-4 leukemia; 51.4 µM with OVCAR-3 ovarian; 29.6 µM in the experiment with HL-60(TB) leukemia; 8.3 µM in the experiment with K-562 leukemia; 31.3 µM in the experiment with NCI-H522 lung. Moreover, the results for the TGI in the experiment with COLO 205 colon and with CAKI-1 renal were 23 µM and 27.9 µM, respectively.
Turning to `O=c1c2ccccc2nc(-c2ccccc2)n1NC(=S)Nc1ccc(Cl)cc1`, the TGI with SF-295 CNS, with MOLT-4 leukemia, with HL-60(TB) leukemia, with K-562 leukemia, with NCI-H522 lung and in the experiment with COLO 205 colon was above 100 µM each time. The TGI with CAKI-1 renal is above 100 µM.
For `CN(C)CCNC(=O)c1cccc2cc3cc(O)ccc3nc12`, the TGI in the experiment with SF-295 CNS was determined as 3.4 µM; in the experiment with MOLT-4 leukemia it was 3.17 µM; in the experiment on OVCAR-3 ovarian, 3.61 µM; with HL-60(TB) leukemia, 2.37 µM; in the experiment with K-562 leukemia it was 11.8 µM; in the experiment on COLO 205 colon, 3.88 µM. The TGI came out at 11.4 µM in the experiment on NCI/ADR-RES ovarian and 6.47 µM in the experiment on MCF7 breast.
Take `Cc1cc(C)nc(/C(=N\NC(N)=O)C(=O)Nc2nc3ccc(C)cc3s2)c1`: the TGI with SF-295 CNS, with MOLT-4 leukemia, with OVCAR-3 ovarian, with HL-60(TB) leukemia, in the experiment with K-562 leukemia and in the experiment with NCI-H522 lung was above 100 µM in each case. Also, the TGI was above 73.5 µM with COLO 205 colon and above 100 µM in the experiment on CAKI-1 renal.
As to `CC1(C)C2CCC3(OCCO3)C1C(O)C2` (centres undefined), the TGI in the experiment on SF-295 CNS, in the experiment on MOLT-4 leukemia, in the experiment with OVCAR-3 ovarian, with HL-60(TB) leukemia, with K-562 leukemia and with NCI-H522 lung was above 100 µM each time. In the experiment on CAKI-1 renal, this compound displayed a TGI above 100 µM.
On to `CCC(COC(=O)CC[C@@H](NC(=O)C(C)NC(=O)C(C)OC1C(O)C(CO)OC(OCc2ccccc2)C1NC(C)=O)C(N)=O)NC1c2ccccc2Nc2cccc([N+](=O)[O-])c21` (some centres undefined), for which the TGI in the experiment on SF-295 CNS, in the experiment with MOLT-4 leukemia, in the experiment with OVCAR-3 ovarian, in the experiment on HL-60(TB) leukemia, in the experiment on K-562 leukemia and with NCI-H522 lung was above 100 µM in each case. For the same compound, the TGI with COLO 205 colon and with CAKI-1 renal was above 100 µM in each case.
As to `COc1ccc2c(c1)OCCc1cn[nH]c1-2`, the TGI in the experiment on SF-295 CNS is above 100 µM; with MOLT-4 leukemia it was 70.4 µM; with OVCAR-3 ovarian, above 100 µM; in the experiment on HL-60(TB) leukemia, 36 µM; in the experiment with K-562 leukemia it was above 100 µM; with NCI-H522 lung it was above 100 µM. Further, the TGI in the experiment on COLO 205 colon, in the experiment with NCI/ADR-RES ovarian and in the experiment with MCF7 breast was above 100 µM throughout.
For the compound `Cc1ccc(S(=O)(=O)[C@@H](Cl)[C@H]2N=C(Cl)NN=C2c2ccccc2)cc1`, the TGI in the experiment with SF-295 CNS is above 100 µM; with MOLT-4 leukemia, 83.1 µM; with OVCAR-3 ovarian, 31.3 µM; in the experiment on K-562 leukemia, above 100 µM; with NCI-H522 lung, 35.9 µM; with COLO 205 colon, 75 µM. Further, the TGI in the experiment with NCI/ADR-RES ovarian was 50.8 µM; in the experiment on MCF7 breast, 89.6 µM; in the experiment on CAKI-1 renal, above 100 µM.
As to `COc1cccc(/C(Cl)=C(\C=O)c2cccc(OC)c2)c1`, the TGI in the experiment on SF-295 CNS came to 35.6 µM; with MOLT-4 leukemia it was 78.3 µM; in the experiment on OVCAR-3 ovarian, 29.1 µM; in the experiment with HL-60(TB) leukemia it was 12.5 µM; in the experiment with K-562 leukemia, 46 µM; in the experiment with NCI-H522 lung, 11.4 µM. In addition, the TGI was determined as 24.2 µM in the experiment on COLO 205 colon and 70 µM in the experiment with CAKI-1 renal.
